Experimental findings from DBAASP are described below.

Holding throughout (test): ≥ marks a high value that may be exact or a test limit, other limits are often not marked, values filed in µg/mL are converted to µM
Test [1] deals with Staphylococcus aureus IP76-25.
The subject of test [2] is Cryptococcus neoformans IP960-67.
Test [3] has as its system Candida albicans IP884-65.
The test system of test [4] is Nocardia brasiliensis IP16-80.
The subject of test [5] is Escherichia coli IP76-24.
Test [6] deals with Aspergillus fumigatus IP1025-70.
Test [7] has as its system Aspergillus niger IP218-53.
In test [8] the test system is Aeromonas caviae IP67-16T.
Test [9] has as its system Trichophyton simii IP1063-74.
The subject of test [10] is Saccharomyces cerevisiae IP118079.
The subject of test [11] is Enterococcus faecalis IP103214.
For test [12], the system named is Enterococcus faecalis 981.
Test [13] concerns Staphylococcus aureus ATCC 25923.
The test system of test [14] is Nocardia asteroides.
Test [15] relates to Mycobacterium tuberculosis FYX.
In test [16] the test system is Mycobacterium tuberculosis.
Test [17] relates to Mycobacterium tuberculosis CAS3.
Test [18] has as its system Escherichia coli ATCC 25922.
The test system of test [19] is Mycobacterium tuberculosis H37Rv.
For test [20], the system named is Mycobacterium tuberculosis WXY.
In test [21] the test system is Pseudomonas aeruginosa IFO 12582.
The subject of test [22] is Bacillus subtilis IFO 3134.
In test [23] the test system is Staphylococcus aureus IFO 12732.
Test [24] relates to Escherichia coli IFO 12734.
Test [25] relates to Salmonella enterica subsp. enterica serovar Typhimurium ATCC 14028.
Test [26] has as its system Pseudomonas aeruginosa ATCC 27853.
Test [27] has as its system Escherichia coli ML-35.
Test [28] has as its system Bacillus megaterium.
Test [29] relates to Enterococcus faecalis ATCC 29212.
The test system of test [30] is Escherichia coli UB1005.
Test [31] relates to Pseudomonas aeruginosa K799.
For test [32], the system named is Listeria monocytogenes.
Test [33] has as its system Salmonella enterica subsp. enterica serovar Typhimurium ATCC 14028s.
For test [34], the system named is Staphylococcus epidermidis.

Converted amounts (≈) assume the structure as drawn. “And” between values parts separate entries of the source, which are not always exact repeats. Equal values may be shown once.

Take `CC[C@H](C)[C@H](NC(=O)CNC(=O)[C@H](CCCCN)NC(=O)[C@H](CC(C)C)NC(=O)[C@H](CCSC)NC(=O)[C@H](CC(N)=O)NC(=O)[C@H](CCCCN)NC(=O)[C@H](Cc1c[nH]c2ccccc12)NC(=O)[C@H](CC(C)C)NC(=O)[C@H](C)N)C(=O)NCC(=O)N[C@@H](CCCCN)C(=O)N[C@@H](CC(C)C)C(=O)N[C@@H](C)C(=O)NCC(=O)N[C@@H](CCCCN)C(=O)N[C@@H](C)C(=O)N[C@@H](C)C(=O)N[C@@H](CC(C)C)C(=O)NCC(N)=O` [ALWKNMLKGIGKLAGKAALG]: the MIC in test [1] was found to be 8 µM (≈ 16.3 µg/mL); in test [2] it was 1 µM (≈ 2.04 µg/mL); in test [3], 4 µM (≈ 8.16 µg/mL); in test [4], 30 µM (≈ 61.2 µg/mL); in test [5], 2 µM (≈ 4.08 µg/mL); in test [6] it was 15 µM (≈ 30.6 µg/mL). Besides, the MIC in test [7] turned out to be 15 µM (≈ 30.6 µg/mL); in test [8], 2 µM (≈ 4.08 µg/mL); in test [9] it was 15 µM (≈ 30.6 µg/mL); in test [10] it was 4 µM (≈ 8.16 µg/mL); in [11], 2 µM (≈ 4.08 µg/mL).
Regarding `CC[C@H](C)[C@H](NC(=O)CNC(=O)[C@H](CCCCN)NC(=O)[C@H](CC(C)C)NC(=O)[C@H](CCSC)NC(=O)[C@H](CC(N)=O)NC(=O)[C@H](CCCCN)NC(=O)[C@H](Cc1c[nH]c2ccccc12)NC(=O)[C@H](CC(C)C)NC(=O)[C@H](C)N)C(=O)NCC(=O)N[C@@H](CCCCN)C(=O)N[C@@H](CC(C)C)C(=O)N[C@@H](C)C(=O)NCC(=O)N[C@@H](CCCCN)C(N)=O` [ALWKNMLKGIGKLAGK], the MIC was at least 60 µM in test [1]; 2 µM (≈ 3.45 µg/mL) in [2]; 8 µM (≈ 13.8 µg/mL) in [3]; at least 70 µM in test [4]; 2 µM (≈ 3.45 µg/mL) in test [5]; 8 µM (≈ 13.8 µg/mL) in test [6]. In addition, the MIC in test [7] was 15 µM (≈ 25.9 µg/mL); in [8], 2 µM (≈ 3.45 µg/mL); in test [9], 8 µM (≈ 13.8 µg/mL); in test [10], 4 µM (≈ 6.91 µg/mL); in test [11], 2 µM (≈ 3.45 µg/mL).
Regarding `CC[C@H](C)[C@H](NC(=O)[C@H](CCCCN)NC(=O)[C@@H]1CCCN1C(=O)[C@H](CC(C)C)NC(=O)[C@H](CC(C)C)NC(=O)[C@H](CO)NC(=O)CNC(=O)[C@H](CC(C)C)NC(=O)[C@H](C)NC(=O)CNC(=O)[C@H](CC(C)C)NC(=O)[C@H](CC(C)C)NC(=O)[C@H](Cc1ccccc1)NC(=O)[C@@H]1CCCN1C(=O)[C@H](Cc1ccccc1)NC(=O)[C@@H](N)Cc1ccccc1)C(=O)N[C@@H](Cc1ccccc1)C(N)=O` [FFPFLLGALGSLLPKIF], the results for the MIC in test [12], in [13] and in test [14] were 25 µM (≈ 47 µg/mL), 12.5 µM (≈ 23.5 µg/mL) and 6.3 µM (≈ 11.8 µg/mL), respectively.
As to `CC(C)C[C@H](NC(=O)[C@H](CCCCN)NC(=O)[C@H](CCCCN)NC(=O)[C@H](CO)NC(=O)[C@H](Cc1ccccc1)NC(=O)[C@H](CCCCN)NC(=O)CNC(=O)[C@@H]1CCCN1C(=O)CNC(=O)[C@H](CCCCN)NC(=O)[C@H](CC(C)C)NC(=O)CNC(=O)[C@H](CCCCN)NC(=O)[C@H](CC(C)C)NC(=O)CNC(=O)[C@H](Cc1c[nH]c2ccccc12)NC(=O)[C@@H](N)Cc1ccccc1)C(=O)O` [FWGLKGLKGPGKFSKKL], the MIC in [15] is 19.8 µM (≈ 37.5 µg/mL); in test [16], 14.8 µM (≈ 28 µg/mL); in test [17], at least 39.7 µM; in test [18], over 25 µM; in test [19] it was 11.6 µM and 19.8 µM; in test [20], at least 39.7 µM.
For `CC[C@H](C)[C@H](NC(=O)[C@H](C)NC(=O)[C@@H]1CCCN1C(=O)[C@@H](NC(=O)[C@@H](NC(=O)[C@H](Cc1cnc[nH]1)NC(=O)[C@H](C)NC(=O)[C@H](C)NC(=O)[C@@H](NC(=O)[C@H](CCCCN)NC(=O)[C@H](C)NC(=O)[C@H](CC(C)C)NC(=O)[C@@H](NC(=O)CNC(=O)[C@H](Cc1ccccc1)NC(=O)CN)C(C)C)C(C)C)C(C)C)C(C)C)C(=O)N[C@@H](C)C(=O)N[C@@H](CCC(=O)O)C(=O)N[C@@H](Cc1cnc[nH]1)C(=O)N[C@@H](Cc1ccccc1)C(N)=O` [GFGVLAKVAAHVVPAIAEHF], the minimal inhibitory concentration (MIC) in [21], in [22], in test [23] and in test [24] was at least 64 µM each time.
In the case of `CC[C@H](C)[C@H](NC(=O)[C@H](C)NC(=O)[C@@H]1CCCN1C(=O)[C@@H](NC(=O)[C@@H](NC(=O)[C@H](Cc1cnc[nH]1)NC(=O)[C@H](C)NC(=O)[C@H](C)NC(=O)[C@@H](NC(=O)[C@H](CCCCN)NC(=O)[C@H](C)NC(=O)[C@H](CC(C)C)NC(=O)[C@@H](NC(=O)CNC(=O)[C@H](Cc1ccccc1)NC(=O)[C@H](CC(C)C)NC(=O)CN)C(C)C)C(C)C)C(C)C)C(C)C)C(=O)N[C@@H](C)C(=O)N[C@@H](CCC(=O)O)C(=O)N[C@@H](Cc1cnc[nH]1)C(N)=O` [GLFGVLAKVAAHVVPAIAEH], the MIC in test [21], in test [22], in test [23] and in test [24] was at least 64 µM each time.
For `CC[C@H](C)[C@H](NC(=O)[C@H](CCCCN)NC(=O)[C@H](CCCCN)NC(=O)[C@H](CC(C)C)NC(=O)[C@H](C)NC(=O)[C@H](CCC(=O)O)NC(=O)[C@H](CCCCN)NC(=O)[C@@H](NC(=O)[C@H](CCCCN)NC(=O)[C@H](CC(N)=O)NC(=O)[C@H](CCCN=C(N)N)NC(=O)[C@H](Cc1ccccc1)NC(=O)[C@H](CCCCN)NC(=O)[C@H](CCCN=C(N)N)NC(=O)[C@H](CC(C)C)NC(=O)[C@H](C)NC(=O)[C@H](CCCCN)NC(=O)[C@H](CCCN=C(N)N)NC(=O)[C@H](CC(C)C)NC(=O)CN)[C@@H](C)CC)C(=O)O` [GLRKALRKFRNKIKEALKKI], the MIC in test [25] came to 0.5 µM (≈ 1.21 µg/mL); in test [18] it was 2 µM (≈ 4.82 µg/mL); in test [26] it was 2 µM (≈ 4.82 µg/mL); in test [27], 0.5 µM (≈ 1.21 µg/mL); in test [28] it was 2 µM (≈ 4.82 µg/mL); in [13] it was 2 µM (≈ 4.82 µg/mL).
`CC[C@H](C)[C@@H]1NC(=O)[C@H](C(C)C)NC(=O)[C@H](C(C)C)NC(=O)[C@H]([C@@H](C)CC)NC(=O)[C@@H]2CCCN2C(=O)[C@@H](NC(=O)[C@H](CCCN=C(N)N)NC(=O)[C@@H](N)CCCN=C(N)N)CSSC[C@@H](C(=O)N[C@@H](CCCN=C(N)N)C(=O)O)NC(=O)[C@H](C(C)C)NC(=O)[C@H](CCCN=C(N)N)NC1=O` [RRCPIVVIRVCR]: the MIC in test [29] was over 21.8 µM; in test [30] it was 2.72 µM (≈ 3.99 µg/mL); in test [31], 21.8 µM (≈ 32 µg/mL); in test [32] it was 10.9 µM (≈ 16 µg/mL); in test [33] it was 10.9 µM (≈ 16 µg/mL); in [13] it was 21.8 µM (≈ 32 µg/mL). Besides, the MIC in test [34] came out at 21.8 µM (≈ 32 µg/mL).
